Data from patent publication US20250235486A1, “Method of Producing Insulin-Producing Cells” (Monash University, priority 2022, published 2025).

Experiments:
[1] = tested on: human exocrine (acinar and ductal) cells; test: qRT-PCR gene expression in human exocrine (acinar and ductal) cells from a non-diabetic donor; assay type: cell-based; conditions: 48 hours: GSK126 10 μM, CPI-1205 5 μM, ursolic acid 5 μM, GSK343 5 μM, EPZ-6438 5 μM
Protocol: (§1) Exocrine cells from a non-diabetic human and a marmoset were cultured and assayed in Miami/CMRL medium. The human exocrine cells were sourced from the Islet Transplant Unit of St Vincent's Institute for Medical Research. The marmoset exocrine cells were sourced from the Australian Regenerative Medicine Institute (ARMI), Monash University. Miami media is based on CMRL 1066 media (Connaught Medical Research Lab) supplemented with: Insulin, Transferrin & Selenium (ITS), human serum, Vitamin E, sodium pyruvate, zinc and HEPES. Pharmacological inhibition of EZH2 and gene expression analysis were performed as described in Example 1.

[2] = tested on: H3K27me3 or H3K9/14ac content at the promoters of INS-IGF2, NGN3 and PDX1 in human pancreatic ductal epithelial cells; test: Quantitative PCR chromatin immunoprecipitation (q-PCR ChIP) after 2- and 7-day stimulation; assay type: cell-based; conditions: 7 days (FIG. 12c)
Protocol: Approximately 5×10^6 cells were fixed in 1% formaldehyde for 10 minutes, with a further 10-minute incubation in 0.125M glycine to quench the cross-linking reaction. The fixed cell pellet was lysed following resuspension and homogenization in sodium dodecyl (lauryl) sulphate (SOS) lysis buffer (1% SOS, 10 mM EDTA, 50 mM Tris-HCl pH 8.1) with a protease inhibitor cocktail (Roche Diagnostics GmBH, Mannheim, Germany) included. Samples were incubated on ice for 5 minutes following which sonication was performed to shear chromatin between 200-600 bp. Sonicated chromatin was resuspended in ChIP Dilution Buffer (0.01% SOS, 1.1% Triton X-100, 1.2 mM EDTA, 16.7 mM Tris-HCl pH 8.0 and 167 mM NaCl). 20 μl of DynabeadsR Protein A (Invitrogen, Carlsbad, CA, USA) was added to each sample and pre-cleared. Overnight incubation at 4° C. with H3K27me3 or H3K9/14ac antibody was used for immunoprecipitation of chromatin, as previously described. Immunoprecipitates were collected by magnetic isolation and washed sequentially with low salt and high salt buffers. Immunoprecipitated DNA was then eluted from solution with 0.1 M NaHCO3 containing 1% SIDS. Protein-DNA cross-links were reversed by incubation of samples in Proteinase K (Sigma, St. Louis, MO, USA) for 2 hours at 62° C. DNA was purified using a Qiagen MinElute column (Qiagen Inc., Valencia, CA, USA). H3K27me3 or H3K9/14ac content at the promoters of the INS-IGF2, NGN3 and PDX1 genes were assessed by qPCR using primers designed from the integrative ENCODE resource.

[3] = molecular target: T1, EZH2 (Homo sapiens, UniProt Q15910); conditions: assay of methylation activity as described in the cited paper for each compound; cited from earlier work
T1 construct: Flag

[4] = tested on: Human pancreatic ductal epithelial cells; test: qRT-PCR after 2- and 7-day EZH2 inhibitor stimulation of human pancreatic ductal epithelial cells; assay type: cell-based; conditions: GSK-126 10 μM, Triptolide 20 nM
Protocol: Human pancreatic ductal epithelial cells were purchased from AddexBio and cultured according to the recommended protocols. Cells were cultured in complete Keratinocyte Serum-Free Media (supplemented with human recombinant EGF, Bovine Pituitary Extract and Antibiotic-Antimycotic [Gibco]. All cell cultures were grown and maintained in a 37° C., 5% C02 environment using a tissue culture incubator. Once cells reached 70-80% confluency, passaging was performed using 0.05% Trypsin EDTA (Sigma). […] Vehicle control was DMSO. Cells were treated over 2 main timepoints, with harvests occurring following 2, and 7 days. For the 2-day time point, cells were seeded and left to adhere in plates for 24 hours. Treatment was initiated with the first dose made up in complete K-SFM. The second dose was delivered 24 hours later following a media change. For the longer period of 7 days, cells were initially seeded in 10 cm plates, with doses delivered on alternate days following the initial period of 24 hours. […] Ct values of experimental genes were normalized to housekeeping gene [MUT]. Fold change of mRNA abundance was calculated by normalizing drug treated values to vehicular controls. […] RNA was isolated using the RNeasy Kit according to the manufacturer's directions. Following measurement of RNA concentration using a QIAxpert System, 1 μg of RNA was used for cDNA synthesis by a high-capacity cDNA Reverse Transcription Kit (Applied Biosystems). The resulting cDNA reaction mix was diluted 1:6 to make up the final template cDNA used subsequently. […] Ct values of experimental genes were normalized to housekeeping gene [MUT]. Fold change of mRNA abundance was calculated by normalizing drug treated values to vehicular controls.

[5] = tested on: Human pancreatic ductal epithelial cells; test: Glucose stimulated insulin secretion assay (ELISA); assay type: cell-based
Protocol: 5×10^5 cells were seeded in 12-well plates and allowed to adhere for 24 hours. […] Next, cells were cultured in 28 mM (High) glucose Krebs Buffer solution and incubated for 1 hour to obtain the glucose stimulated insulin secretion. Supernatant was collected and Ultrasensitive Insulin ELISA (Mercodia) was used to determine the concentration of insulin according to manufacturer's instructions. Fold change of insulin secreted by cells were calculated by adjusting to cells stimulated with EZH2 inhibitors for insulin concentrations compared to control.

[6] = tested on: Human immortalised ductal cell line; test: qRT-PCR gene expression in human immortalised ductal cell line; assay type: cell-based; conditions: ursolic acid 1, 2.5 or 5 μM; GSK126 5, 10 or 20 μM
Protocol: Human immortalised ductal cell line (Catalog #: T0018001, Addexbio) was cultured and assayed in Keratinocyte SFM (serum-free medium) (Catalog number 17005042, ThermoFisher Scientific, USA). Pharmacological inhibition of EZH2 and gene expression analysis were performed as described in Example 1.

[7] = tested on: marmoset exocrine (acinar and ductal) cells; test: qRT-PCR gene expression in marmoset exocrine (acinar and ductal) cells; assay type: cell-based; conditions: 48 hours: GSK126 10 μM, ursolic acid 5 μM
Protocol: as §1

T1 sequence (Q15910 whole entry): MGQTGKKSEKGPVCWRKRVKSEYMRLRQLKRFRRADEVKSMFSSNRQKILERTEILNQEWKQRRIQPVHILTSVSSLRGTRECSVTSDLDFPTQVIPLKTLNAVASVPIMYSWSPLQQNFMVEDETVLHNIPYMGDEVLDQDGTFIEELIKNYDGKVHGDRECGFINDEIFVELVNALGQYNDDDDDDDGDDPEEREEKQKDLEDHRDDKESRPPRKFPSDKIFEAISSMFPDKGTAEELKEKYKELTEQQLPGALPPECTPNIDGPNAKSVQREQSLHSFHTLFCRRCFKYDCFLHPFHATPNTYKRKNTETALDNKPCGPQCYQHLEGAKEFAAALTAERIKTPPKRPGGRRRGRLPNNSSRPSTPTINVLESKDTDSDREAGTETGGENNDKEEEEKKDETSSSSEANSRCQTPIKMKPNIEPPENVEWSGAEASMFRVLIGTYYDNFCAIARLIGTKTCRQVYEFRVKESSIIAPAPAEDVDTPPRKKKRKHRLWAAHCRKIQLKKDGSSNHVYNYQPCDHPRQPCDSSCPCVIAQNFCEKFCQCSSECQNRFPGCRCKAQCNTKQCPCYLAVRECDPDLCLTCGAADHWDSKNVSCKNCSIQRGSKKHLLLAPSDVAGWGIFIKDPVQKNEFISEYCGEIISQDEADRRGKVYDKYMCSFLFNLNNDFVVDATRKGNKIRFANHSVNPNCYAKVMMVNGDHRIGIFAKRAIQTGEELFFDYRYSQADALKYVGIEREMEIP
T1 sequence (O75530 whole entry partner): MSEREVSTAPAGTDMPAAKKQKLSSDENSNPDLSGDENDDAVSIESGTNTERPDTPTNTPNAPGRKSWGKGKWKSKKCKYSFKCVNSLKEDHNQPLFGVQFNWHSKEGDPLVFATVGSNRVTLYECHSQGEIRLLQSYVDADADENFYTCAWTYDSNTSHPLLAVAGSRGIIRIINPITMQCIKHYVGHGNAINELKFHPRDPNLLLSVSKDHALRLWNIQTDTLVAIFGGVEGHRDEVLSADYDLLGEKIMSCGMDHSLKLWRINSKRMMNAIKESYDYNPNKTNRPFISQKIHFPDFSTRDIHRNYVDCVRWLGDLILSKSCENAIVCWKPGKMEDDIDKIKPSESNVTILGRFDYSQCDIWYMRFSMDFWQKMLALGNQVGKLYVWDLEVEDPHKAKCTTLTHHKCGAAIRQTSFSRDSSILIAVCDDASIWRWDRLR
T1 sequence (Q15022 whole entry partner): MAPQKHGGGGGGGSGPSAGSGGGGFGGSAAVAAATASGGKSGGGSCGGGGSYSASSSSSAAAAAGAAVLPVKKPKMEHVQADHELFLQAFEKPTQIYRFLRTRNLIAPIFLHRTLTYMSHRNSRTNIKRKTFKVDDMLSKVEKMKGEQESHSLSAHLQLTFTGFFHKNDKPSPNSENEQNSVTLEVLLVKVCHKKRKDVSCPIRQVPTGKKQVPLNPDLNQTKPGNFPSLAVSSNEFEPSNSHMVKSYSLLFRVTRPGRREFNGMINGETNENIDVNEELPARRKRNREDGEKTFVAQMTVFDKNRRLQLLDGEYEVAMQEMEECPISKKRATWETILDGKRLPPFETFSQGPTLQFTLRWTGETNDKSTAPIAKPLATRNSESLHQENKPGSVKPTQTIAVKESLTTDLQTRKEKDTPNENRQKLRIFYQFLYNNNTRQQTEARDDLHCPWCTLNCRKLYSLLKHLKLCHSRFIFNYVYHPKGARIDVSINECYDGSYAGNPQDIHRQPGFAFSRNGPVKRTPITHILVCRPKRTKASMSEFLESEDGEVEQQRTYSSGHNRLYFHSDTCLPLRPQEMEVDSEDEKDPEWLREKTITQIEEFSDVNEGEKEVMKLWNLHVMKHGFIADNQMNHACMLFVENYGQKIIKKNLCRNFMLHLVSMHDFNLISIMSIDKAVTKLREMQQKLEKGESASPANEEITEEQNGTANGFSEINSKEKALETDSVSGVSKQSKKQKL
T1 sequence (Q6ZN18 whole entry partner): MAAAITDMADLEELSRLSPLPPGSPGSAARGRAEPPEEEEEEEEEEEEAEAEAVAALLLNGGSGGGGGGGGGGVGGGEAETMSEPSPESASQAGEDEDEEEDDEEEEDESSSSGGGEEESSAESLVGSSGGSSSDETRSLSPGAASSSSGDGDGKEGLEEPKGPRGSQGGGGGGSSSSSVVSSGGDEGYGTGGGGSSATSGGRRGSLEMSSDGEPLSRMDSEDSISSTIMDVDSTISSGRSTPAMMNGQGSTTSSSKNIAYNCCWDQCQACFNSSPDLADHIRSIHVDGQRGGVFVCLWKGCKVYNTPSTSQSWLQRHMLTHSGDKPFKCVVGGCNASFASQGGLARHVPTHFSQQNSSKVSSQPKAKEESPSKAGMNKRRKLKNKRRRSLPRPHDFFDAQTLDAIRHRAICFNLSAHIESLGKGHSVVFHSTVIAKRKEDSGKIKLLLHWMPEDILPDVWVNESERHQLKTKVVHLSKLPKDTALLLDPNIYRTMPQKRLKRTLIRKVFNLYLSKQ
T1 sequence (Q09028 whole entry partner): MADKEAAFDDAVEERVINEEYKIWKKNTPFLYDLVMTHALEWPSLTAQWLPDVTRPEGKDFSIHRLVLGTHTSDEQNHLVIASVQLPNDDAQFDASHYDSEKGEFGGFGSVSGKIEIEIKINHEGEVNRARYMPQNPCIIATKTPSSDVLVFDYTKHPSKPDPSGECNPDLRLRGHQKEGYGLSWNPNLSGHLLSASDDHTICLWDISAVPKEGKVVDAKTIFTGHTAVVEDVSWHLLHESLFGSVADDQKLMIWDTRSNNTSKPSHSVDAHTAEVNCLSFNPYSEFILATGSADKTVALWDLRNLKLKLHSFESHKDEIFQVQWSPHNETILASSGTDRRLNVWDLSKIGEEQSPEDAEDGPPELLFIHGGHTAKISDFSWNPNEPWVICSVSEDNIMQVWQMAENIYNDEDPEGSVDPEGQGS

COc1cc(C)[nH]c(=O)c1CNC(=O)c1c(C)n([C@H](C)C2CCN(CC(F)(F)F)CC2)c2ccccc12 [CPI-1205, N-[(1,2-Dihydro-4-methoxy-6-methyl-2-oxo-3-pyridinyl)methyl]-2-methyl-1-[(1R)-1-[1-(2,2,2-trifluoroethyl)-4-piperidinyl]ethyl]-1H-indole-3-carboxamide]
mRNA expression of Insulin, Pdx1 and Ngn3 [1]: stimulated expression of one, two or all of Insulin, Pdx1 and Ngn3

CCN(c1cc(-c2ccc(CN3CCOCC3)cc2)cc(C(=O)NCc2c(C)cc(C)[nH]c2=O)c1C)C1CCOCC1 [EPZ-6438, N-[(1,2-Dihydro-4,6-dimethyl-2-oxo-3-pyridinyl)methyl]-5-[ethyl(tetrahydro-2H-pyran-4-yl)amino]-4-methyl-4′-(4-morpholinylmethyl)[1,1′-biphenyl]-3-carboxamide]
mRNA expression of Insulin, Pdx1 and Ngn3 [1]: stimulated expression of one, two or all of Insulin, Pdx1 and Ngn3
H3K27me3 content of PDX1 [2]: reduced

CCCc1cc(C)[nH]c(=O)c1CNC(=O)c1cc(-c2ccnc(N3CCN(C)CC3)c2)cc2c1cnn2C(C)C [GSK343, N-[(1,2-Dihydro-6-methyl-2-oxo-4-propyl-3-pyridinyl)methyl]-1-(1-methylethyl)-6-[2-(4-methyl-1-piperazinyl)-4-pyridinyl]-1H-indazole-4-carboxamide]
mRNA expression of Insulin, Pdx1 and Ngn3 [1]: stimulated expression of one, two or all of Insulin, Pdx1 and Ngn3
IC50 [3]: 4 nM

CC(C)[C@]12O[C@H]1[C@@H]1O[C@]13[C@]1(O[C@H]1C[C@H]1C4=C(CC[C@@]13C)C(=O)OC4)[C@@H]2O [Triptolide, (3bS,4aS,5aS,6R,6aR,7aS, 7bS,8aS,8bS)-3b,4,4a,6,6a,7a,7b,8b,9,10-Decahydro-6-hydroxy-8b-methyl-6a-(1-methylethyl)trisoxireno[4b,5: 6,7:8a,9]phenanthro[1,2-c]furan-1(3H)-one]
MAFA mRNA levels ([4]; 2-day point): increased in a statistically significant manner
CK19 expression ([4]; 2 days, EPZ6438 1 μM): statistically significant decreases
NGN3 mRNA levels ([4]; 2 days, EPZ6438 1 μM): significantly elevated
insulin transcripts, mature mRNA (INS) ([4]; 2 days, EPZ6438 1 μM): elevations
insulin transcripts, unprocessed heterogenous nuclear form (INS hnRNA) ([4]; 2 days, EPZ6438 1 μM): elevations
NGN3 mRNA levels ([4]; 7 days, EPZ6438 1 μM): Further increases
insulin transcripts, mature mRNA (INS) ([4]; 7 days, EPZ6438 1 μM): even further increases
insulin transcripts, unprocessed heterogenous nuclear form (INS hnRNA) ([4]; 7 days, EPZ6438 1 μM): even further increases
insulin concentration after incubation in high-glucose media (28 mM glucose, 1 hour) ([5]; 2-day stimulation (FIG. 13d), GSK126 10 μM, EPZ6438 1 μM, Triptolide 20 nM, not observed in DMSO control): significant elevations
Release of insulin (glucose stimulated) ([5]; 7 days stimulation (FIG. 13e)): maintained

C[C@H]1[C@H](C)CC[C@]2(C(=O)O)CC[C@]3(C)C(=CC[C@@H]4[C@@]5(C)CC[C@H](O)C(C)(C)[C@@H]5CC[C@]43C)[C@H]12 [Ursolic acid, 3β-Hydroxyurs-12-en-28-oic acid]
Insulin mRNA expression [6]: stimulated expression
Ngn3 mRNA expression [6]: stimulated expression
Pdx1 mRNA expression [6]: stimulated expression
mRNA expression of Insulin, Pdx1 and Ngn3 [1]: stimulated expression of one, two or all of Insulin, Pdx1 and Ngn3
Insulin mRNA expression [7]: stimulated expression
Pdx1 mRNA expression [7]: stimulated expression
